Data: patent US11730778B2, “Method of increasing the level and production of metabolized phytonutrients in a subject” (ACCESS BUSINESS GROUP INTERNATIONAL LLC, priority 2019, dated 2023)

Test system: intestinal microbiota (fecal samples) of human subjects
Assay: in-vitro fermentations of fecal samples (intestinal microbiota-representing microarray) with phytonutrient precursor compounds
Type: in vitro ADME
Conditions: in-vitro fermentation; for Phytonutrient Producer Status: conversion of the phytonutrient precursor compound, S1: fecal sample of Subject 1 (S1); for Phytonutrient Producer Status: conversion of the phytonutrient precursor compound, S2: fecal sample of Subject 2 (S2); for Phytonutrient Producer Status: conversion of the phytonutrient precursor compound, S3: fecal sample of Subject 3 (S3); for Phytonutrient Producer Status: conversion of the phytonutrient precursor compound, S4: fecal sample of Subject 4 (S4); for Phytonutrient Producer Status: conversion of the phytonutrient precursor compound, S5: fecal sample of Subject 5 (S5); for Phytonutrient Producer Status: conversion of the phytonutrient precursor compound, S6: fecal sample of Subject 6 (S6); for Phytonutrient Producer Status: conversion of the phytonutrient precursor compound, S7: fecal sample of Subject 7 (S7); for Phytonutrient Producer Status: conversion of the phytonutrient precursor compound, S8: fecal sample of Subject 8 (S8); for Phytonutrient Producer Status: conversion of the phytonutrient precursor compound, S9: fecal sample of Subject 9 (S9); for Phytonutrient Producer Status: conversion of the phytonutrient precursor compound, S10: fecal sample of Subject 10 (S10); for Phytonutrient Producer Status: conversion of the phytonutrient precursor compound, S11: fecal sample of Subject 11 (S11)
Experimental: The phytonutrient producer status of 11 human subjects (“Subjects 1-11”, or “S1”-“S11”, respectively) was assessed by determining the microbial metabolism of various phytonutrient precursor compounds. […] The metabolism of the phytonutrient precursor compound in each assay was then determined via monitoring conversion (+), partial conversion (±), or no conversion (−) of the phytonutrient precursor compound over time.

| Compound | Phytonutrient Producer Status: conversion of the phytonutrient precursor compound, S1 | Phytonutrient Producer Status: conversion of the phytonutrient precursor compound, S2 | Phytonutrient Producer Status: conversion of the phytonutrient precursor compound, S3 | Phytonutrient Producer Status: conversion of the phytonutrient precursor compound, S4 | Phytonutrient Producer Status: conversion of the phytonutrient precursor compound, S5 | Phytonutrient Producer Status: conversion of the phytonutrient precursor compound, S6 | Phytonutrient Producer Status: conversion of the phytonutrient precursor compound, S7 | Phytonutrient Producer Status: conversion of the phytonutrient precursor compound, S8 | Phytonutrient Producer Status: conversion of the phytonutrient precursor compound, S9 | Phytonutrient Producer Status: conversion of the phytonutrient precursor compound, S10 | Phytonutrient Producer Status: conversion of the phytonutrient precursor compound, S11 |
| --- | --- | --- | --- | --- | --- | --- | --- | --- | --- | --- | --- |
| Oc1cc(O)c2c(c1)O[C@H](c1cc(O)c(O)c(O)c1)[C@H](O)C2 [Epigallocatechol] | + | + | ± | + | + | + | + | + | + | + | + |
| COc1ccc([C@@H]2CC(=O)c3c(O)cc(O[C@@H]4O[C@H](CO[C@@H]5O[C@@H](C)[C@H](O)[C@@H](O)[C@H]5O)[C@@H](O)[C@H](O)[C@H]4O)cc3O2)cc1O [Hesperidin] | + | + | + | + | ± | + | + | + | + | + | + |
| COc1cc(C[C@@H](CO[C@@H]2O[C@H](CO)[C@@H](O)[C@H](O)[C@H]2O)[C@H](CO[C@@H]2O[C@H](CO)[C@@H](O)[C@H](O)[C@H]2O)Cc2ccc(O)c(OC)c2)ccc1O [Secoisolariciresinol diglucoside] | + | + | ± | + | + | ± | ± | ± | + | + | + |

Continued, values first:

| Phytonutrient Producer Status: conversion of the phytonutrient precursor compound, S1 | Phytonutrient Producer Status: conversion of the phytonutrient precursor compound, S2 | Phytonutrient Producer Status: conversion of the phytonutrient precursor compound, S3 | Phytonutrient Producer Status: conversion of the phytonutrient precursor compound, S4 | Phytonutrient Producer Status: conversion of the phytonutrient precursor compound, S5 | Phytonutrient Producer Status: conversion of the phytonutrient precursor compound, S6 | Phytonutrient Producer Status: conversion of the phytonutrient precursor compound, S7 | Phytonutrient Producer Status: conversion of the phytonutrient precursor compound, S8 | Phytonutrient Producer Status: conversion of the phytonutrient precursor compound, S9 | Phytonutrient Producer Status: conversion of the phytonutrient precursor compound, S10 | Phytonutrient Producer Status: conversion of the phytonutrient precursor compound, S11 | Compound |
| --- | --- | --- | --- | --- | --- | --- | --- | --- | --- | --- | --- |
| − | + | + | + | − | + | + | − | − | + | − | O=c1c(O)c(-c2ccc(O)c(O)c2)oc2cc(O)cc(O)c12 [Quercetin] |
| ± | ± | + | ± | ± | + | + | ± | + | + | + | OC[C@H]1O[C@@H](Oc2cc3c(O)cc(O)cc3[o+]c2-c2ccc(O)c(O)c2)[C@H](O)[C@@H](O)[C@@H]1O [Cyanidin-3-glucoside] |
| ± | ± | ± | − | − | − | − | ± | − | ± | − | O=c1oc2c(O)c(O)cc3c(=O)oc4c(O)c(O)cc1c4c23 [Ellagic acid] |
